In brackets after ≈: the same amount, converted by molar mass.
Legend:
Format in all cases: functional
Enterococcus faecium [1] = assay: Antimicrobial activity against vancomycin and teicoplanin resistant Enterococcus faecium NEF1 after 24 hrs; conditions: NEF1, 24 h
Enterococcus faecium [2] = assay: Antimicrobial activity against vancomycin and teicoplanin resistant Enterococcus faecium BM4339 after 24 hrs; conditions: BM4339, 24 h
Enterococcus faecium [3] = assay: Antimicrobial activity against Enterococcus faecium BM4458 harboring plasmid PAT830 carrying P2 vanSD (V67A) aac (6)-aph (2) mutant gene after 24 hrs; conditions: BM4458, 24 h
Enterococcus faecium [4] = assay: Antimicrobial activity against Enterococcus faecium BM4458 harboring plasmid PAT833 carrying P2 vanSD (G340S) aac (6)-aph (2) mutant gene after 24 hrs; conditions: BM4458, 24 h
Enterococcus faecium [5] = assay: Antimicrobial activity against vancomycin and teicoplanin resistant Enterococcus faecium BM4656 after 24 hrs; conditions: BM4656, 24 h
Enterococcus faecalis = assay: Antimicrobial activity against vancomycin and teicoplanin resistant Enterococcus faecalis BM4654 after 24 hrs; conditions: BM4654, 24 h
Enterococcus faecium [6] = assay: Antimicrobial activity against Enterococcus faecium BM4458 harboring plasmid PAT832 carrying P2 vanSD (K308Q I309V R335Q) aac (6)-aph (2) mutant gene after 24 hrs; conditions: BM4458, 24 h
Enterococcus faecium [7] = assay: Antimicrobial activity against vancomycin and teicoplanin resistant Enterococcus faecium BM4653 after 24 hrs; conditions: BM4653, 24 h
Enterococcus faecium [8] = assay: Antimicrobial activity against Enterococcus faecium BM4458 after 24 hrs; conditions: BM4458, 24 h
Enterococcus avium = assay: Antimicrobial activity against vancomycin and teicoplanin resistant Enterococcus avium BM4655 after 24 hrs; conditions: BM4655, 24 h
Enterococcus faecium [9] = assay: Antimicrobial activity against Enterococcus faecium BM4458 harboring plasmid PAT831 carrying P2 vanSD 6bp330 aac (6)-aph (2) mutant gene after 24 hrs; conditions: BM4458, 24 h

CC(=O)N[C@@H]1[C@H](Oc2c3cc4cc2Oc2ccc(cc2Cl)[C@@H](O[C@@H]2O[C@@H](CO)[C@@H](O)[C@H](O)[C@@H]2NC(C)=O)[C@@H]2NC(=O)[C@H](NC(=O)[C@@H]4NC(=O)[C@H]4NC(=O)[C@@H](Cc5ccc(c(Cl)c5)O3)NC(=O)[C@H](N)c3ccc(O)c(c3)Oc3cc(O)cc4c3)c3ccc(O)c(c3)-c3c(O[C@H]4O[C@H](CO)[C@@H](O)[C@@H](O)[C@@H]4O)cc(O)cc3[C@@H](C(=O)O)NC2=O)O[C@@H](CO)[C@@H](O)[C@@H]1O
MIC (Enterococcus faecium [1]): 64 µg/mL (≈ 36.2 µM) | MIC (Enterococcus faecium [2]): 4 µg/mL (≈ 2.26 µM) | MIC (Enterococcus faecium [3]): 0.5 µg/mL (≈ 0.283 µM) | MIC (Enterococcus faecium [4]): 0.5 µg/mL (≈ 0.283 µM) | MIC (Enterococcus faecium [5]): 4 µg/mL (≈ 2.26 µM) | MIC (Enterococcus faecalis): 0.5 µg/mL (≈ 0.283 µM) | MIC (Enterococcus faecium [6]): 0.5 µg/mL (≈ 0.283 µM) | MIC (Enterococcus faecium [7]): 4 µg/mL (≈ 2.26 µM) | MIC (Enterococcus faecium [8]): 0.5 µg/mL (≈ 0.283 µM) | MIC (Enterococcus avium): 4 µg/mL (≈ 2.26 µM) | MIC (Enterococcus faecium [9]): 0.5 µg/mL (≈ 0.283 µM)

CN[C@H](CC(C)C)C(=O)N[C@H]1C(=O)N[C@@H](CC(N)=O)C(=O)N[C@H]2C(=O)N[C@H]3C(=O)N[C@H](C(=O)N[C@H](C(=O)O)c4cc(O)cc(O)c4-c4cc3ccc4O)[C@H](O)c3ccc(c(Cl)c3)Oc3cc2cc(c3O[C@@H]2O[C@H](CO)[C@@H](O)[C@H](O)[C@H]2O[C@H]2C[C@](C)(N)[C@H](O)[C@H](C)O2)Oc2ccc(cc2Cl)[C@H]1O [VANCOMYCIN]
MIC (Enterococcus faecium [1]): 512 µg/mL (≈ 353 µM) | MIC (Enterococcus faecium [2]): 64 µg/mL (≈ 44.2 µM) | MIC (Enterococcus faecium [3]): 4 µg/mL (≈ 2.76 µM) | MIC (Enterococcus faecium [4]): 4 µg/mL (≈ 2.76 µM) | MIC (Enterococcus faecium [5]): 32 µg/mL (≈ 22.1 µM) | MIC (Enterococcus faecalis): 16 µg/mL (≈ 11 µM) | MIC (Enterococcus faecium [6]): 4 µg/mL (≈ 2.76 µM) | MIC (Enterococcus faecium [7]): 32 µg/mL (≈ 22.1 µM) | MIC (Enterococcus faecium [8]): 4 µg/mL (≈ 2.76 µM) | MIC (Enterococcus avium): 32 µg/mL (≈ 22.1 µM) | MIC (Enterococcus faecium [9]): 4 µg/mL (≈ 2.76 µM)

Source: ChEMBL document CHEMBL1649197, “New combinations of mutations in VanD-Type vancomycin-resistant Enterococcus faecium, Enterococcus faecalis, and Enterococcus avium strains” (2009)
